In one test the target is T1, SOS1 protein (Homo sapiens, UniProt Q07889).
T1 sequence (Q07889 1-1333): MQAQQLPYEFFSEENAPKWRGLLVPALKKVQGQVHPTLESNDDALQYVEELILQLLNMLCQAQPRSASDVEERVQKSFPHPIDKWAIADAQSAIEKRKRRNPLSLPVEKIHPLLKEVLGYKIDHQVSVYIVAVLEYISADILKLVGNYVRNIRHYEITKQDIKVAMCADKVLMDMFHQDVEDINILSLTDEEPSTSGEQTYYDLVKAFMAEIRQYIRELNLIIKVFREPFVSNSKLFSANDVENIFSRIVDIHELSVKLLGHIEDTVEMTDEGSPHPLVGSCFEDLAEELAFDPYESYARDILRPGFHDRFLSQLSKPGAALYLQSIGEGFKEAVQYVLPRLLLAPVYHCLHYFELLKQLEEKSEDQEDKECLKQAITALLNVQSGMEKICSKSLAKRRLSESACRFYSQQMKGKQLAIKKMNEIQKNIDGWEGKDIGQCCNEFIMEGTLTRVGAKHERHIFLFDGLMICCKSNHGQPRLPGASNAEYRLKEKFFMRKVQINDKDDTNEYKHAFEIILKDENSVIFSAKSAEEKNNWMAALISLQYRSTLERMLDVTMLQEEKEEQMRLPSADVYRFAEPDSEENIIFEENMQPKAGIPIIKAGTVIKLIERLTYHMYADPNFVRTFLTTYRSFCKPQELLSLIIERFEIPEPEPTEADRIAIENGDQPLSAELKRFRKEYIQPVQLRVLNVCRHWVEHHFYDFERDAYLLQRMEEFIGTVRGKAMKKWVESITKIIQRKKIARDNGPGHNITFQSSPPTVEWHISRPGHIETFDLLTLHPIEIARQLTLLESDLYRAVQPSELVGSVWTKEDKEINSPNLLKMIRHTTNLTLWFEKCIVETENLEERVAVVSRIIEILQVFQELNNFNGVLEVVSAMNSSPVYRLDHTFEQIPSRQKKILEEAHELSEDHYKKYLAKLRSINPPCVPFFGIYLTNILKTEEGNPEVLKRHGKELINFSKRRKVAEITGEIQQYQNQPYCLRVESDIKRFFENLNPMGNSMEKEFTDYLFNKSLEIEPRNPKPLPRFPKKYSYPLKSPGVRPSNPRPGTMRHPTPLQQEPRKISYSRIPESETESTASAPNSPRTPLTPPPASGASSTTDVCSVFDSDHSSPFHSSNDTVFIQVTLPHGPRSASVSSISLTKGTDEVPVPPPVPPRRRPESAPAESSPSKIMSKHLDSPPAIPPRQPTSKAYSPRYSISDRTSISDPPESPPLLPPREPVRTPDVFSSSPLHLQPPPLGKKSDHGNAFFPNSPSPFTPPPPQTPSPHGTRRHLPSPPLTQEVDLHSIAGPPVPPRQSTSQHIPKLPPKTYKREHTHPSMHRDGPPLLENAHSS
Kind of test: SOS1 degradation assay (Western blot), NCI-H358 cells. It counts as cell-based. The following applies: SOS1 degradation, NCI-H358 cells, 24 h, Western blot; for DC50: read-out: NCI-H358 (G12C) DC50; for Dmax: read-out: NCI-H358 (G12C) Dmax. On the set-up: The degradation of SOS1 by the compounds was investigated on KRAS G12C mutant human non-small cell lung cancer cells NCI-H358; host or cells: NCI-H358 (human cancer cell lines). In short, it runs like this:
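Cells at 5×10^5 per well were treated for 24 h at 37 °C with compound at 0.03–3000 nM final. SOS1 in lysates was measured by Western blot with chemiluminescent densitometry and normalised to the control group. DC50 and Dmax came from nonlinear fits against log concentration.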

The target in a further test is T2, KRAS-G12C/SOS1 (Homo sapiens, UniProt Q07889).
T2 construct: purchased Cisbio 63ADKOOOCB16PEG
T2 sequence (Q07889 1-1333): T1 sequence (Q07889 1-1333)
Kind of test: KRAS-G12C/SOS1 binding assay (HTRF). The following applies: inhibition of KRAS-G12C/SOS1 binding. Here is the method:
The following method was used to determine the extent of inhibition of KRAS-G12C/SOS1 binding by the preferred compounds of the present invention under in vitro conditions. In this method, the competitive inhibition of KRAS-G12C/SOS1 binding by the preferred compounds was assayed by the homogeneous time-resolved fluorescence (HTRF) technology using the KRAS-G12C/SOS1 binding assay kit (Cisbio, 63ADKOOOCB16PEG).
The experimental procedures were as follows (refer to the kit instructions for details): the compounds of the present invention were each firstly dissolved in DMSO at a concentration of 20 mM, and then diluted in an equal gradient with a buffer in the kit, so that the final concentrations of the test compounds in the reaction system were in a range of 10000 nM-0.04 nM, and the final concentration of DMSO was 0.5%. 2 μL of the compounds were each incubated with 4 μL of 1×Tag1-SOS1, 4 μL of 1×Tag2-KRAS-G12C (containing 10 μM guanosine triphosphate, GTP) at 25° C. for 15 min. Then 5 μL of 1× Anti-Tag1-Tb3+ and 5 μL of 1× Anti-Tag2-XL665 were added to the reaction system, and the mixture was incubated on ice for 3 h. After the incubation, the fluorescence intensity of each well was measured at the excitation wavelength of 337 nm, the fluorescence intensity of each well was read at the emission wavelengths of 620 nm and 665 nm on a microplate reader EnVision (PerkinElmer, 2105) in an HTRF mode, and the Ratio value was calculated by the formula Ratio=(665 nm/620 nm)×[…]. The inhibition rates of the compounds at each concentration were calculated by comparing the fluorescence intensity ratio with that of the control group, and then nonlinear curve fitting was performed by GraphPad Prism 8 in the logarithmic concentration-inhibition rate to obtain the IC50 values of the compounds, as shown in Table 1.
A general note: In TR-FRET formats the signal depends on donor and acceptor labels being close together.

SMILES strings stand for the structures. pIC50: −log10 of the molar value.

Consider `COc1cc2nc(C)nc(N[C@H](C)c3cc(-c4c(Cl)cccc4CN(C)C)cs3)c2cc1[C@H]1CC[C@H](C(=O)N2CCC(CCCOC3CCN(C(=O)c4ccc(Cl)c(N5CCC(=O)NC5=O)c4)CC3)CC2)CC1` [Example 54, 1-(2-chloro-5-(4-(3-(1-((1R,4R)-4-(4-(((R)-1-(4-(2-chloro-6-((dimethylamino)methyl)phenyl)thien-2-yl)ethyl)amino)-7-methoxy-2-methylquinazolin-6-yl)cyclohexane-1-carbonyl)piperidin-4-yl)propoxy)piperidine-1-carbonyl)phenyl)dihydropyrimidine-2,4(1H,3H)-dione], for which, on SOS1 protein, the DC50 (usually the midpoint of the concentration-degradation curve) is less than 0.05 µM and the Dmax (in general, the greatest extent of degradation seen) fell in the range of 80 to 100%. Moreover, the pIC50 (in general, −log10 of the IC50, conventionally taken in molar units) at KRAS-G12C/SOS1 is no less than 7.82.

With `COc1cc2nc(C)nc(N[C@H](C)c3cc(-c4c(Cl)cccc4CN(C)C)cs3)c2cc1[C@H]1CC[C@H](C(=O)N2CCC(CCCCN3CCN(C(=O)c4ccc(Cl)c(N5CCC(=O)NC5=O)c4)CC3)CC2)CC1` [Example 56, 1-(2-chloro-5-(4-(4-(1-((1R,4R)-4-(4-(((R)-1-(4-(2-chloro-6-((dimethylamino)methyl)phenyl)thien-2-yl)ethyl)amino)-7-methoxy-2-methylquinazolin-6-yl)cyclohexane-1-carbonyl)piperidin-4-yl)butyl)piperazine-1-carbonyl)phenyl)dihydropyrimidine-2,4(1H,3H)-dione], at SOS1 protein, the DC50 is less than 0.05 µM and the maximal degradation (Dmax) is 80 to 100%. On KRAS-G12C/SOS1, this molecule had a pIC50 of no less than 7.82.

As to `COc1cc2nc(C)nc(N[C@H](C)c3cc(-c4c(Cl)cccc4CN(C)C)cs3)c2cc1[C@H]1CC[C@H](C(=O)N2CCC(CCOCC3CCN(C(=O)c4ccc(C(F)(F)F)c(N5CCC(=O)NC5=O)c4)CC3)CC2)CC1` [Example 57, 1-(5-(4-((2-(1-((1R,4R)-4-(4-(((R)-1-(4-(2-chloro-6-((dimethylamino)methyl)phenyl)thien-2-yl)ethyl)amino)-7-methoxy-2-methylquinazolin-6-yl)cyclohexane-1-carbonyl)piperidin-4-yl)ethoxy)methyl)piperidine-1-carbonyl)-2-(trifluoromethyl)phenyl)dihydropyrimidine-2,4(1H,3H)-dione], the 50% degradation concentration (DC50) on SOS1 protein was less than 0.05 µM. The molecule also gave a negative logarithm of the IC50 (pIC50) at KRAS-G12C/SOS1 of no less than 7.82.

Consider `COc1ccc(C(=O)N2CCC3(CCC(CN4CCN(C(=O)[C@H]5CC[C@H](c6cc7c(N[C@H](C)c8cc(-c9c(Cl)cccc9CN(C)C)cs8)nc(C)nc7cc6OC)CC5)CC4)CC3)CC2)cc1N1CCC(=O)NC1=O` [Example 59, 1-(5-(9-((4-((1R,4R)-4-(4-(((R)-1-(4-(2-chloro-6-((dimethylamino)methyl)phenyl)thien-2-yl)ethyl)amino)-7-methoxy-2-methylquinazolin-6-yl)cyclohexane-1-carbonyl)piperazin-1-yl)methyl)-3-azaspiro[5.5]undecane-3-carbonyl)-2-methoxyphenyl)dihydropyrimidine-2,4(1H,3H)-dione], for which, at SOS1 protein, the 50% degradation concentration (DC50) was less than 0.05 µM and the maximal degradation (Dmax) lay in the range of 80 to 100%. The molecule further showed a pIC50 at KRAS-G12C/SOS1 of no less than 7.82.

Turning to `COc1cc2nc(C)nc(N[C@H](C)c3cc(-c4c(Cl)cccc4CN(C)C)cs3)c2cc1[C@H]1CC[C@H](C(=O)N2CCN(CC3CCC4(CC3)CCN(C(=O)c3ccc(F)c(N5CCC(=O)NC5=O)c3)CC4)CC2)CC1` [Example 60, 1-(5-(9-((4-((1R,4R)-4-(4-(((R)-1-(4-(2-chloro-6-((dimethylamino)methyl)phenyl)thien-2-yl)ethyl)amino)-7-methoxy-2-methylquinazolin-6-yl)cyclohexane-1-carbonyl)piperazin-1-yl)methyl)-3-azaspiro[5.5]undecane-3-carbonyl)-2-fluorophenyl)dihydropyrimidine-2,4(1H,3H)-dione], on SOS1 protein, the 50% degradation concentration (DC50) was less than 0.05 µM and the Dmax is 50 to 80%. On KRAS-G12C/SOS1, this molecule showed a negative logarithm of the IC50 (pIC50) of no less than 7.82.

The record behind these values is patent US20240261417A1, “SOS1 DEGRADING AGENT AND PREPARATION METHOD THEREFOR AND APPLICATION THEREOF” (SHANGHAI LEADINGTAC PHARMACEUTICAL CO. LTD., priority 2021, published 2024).
